The values that follow come from ChEMBL document CHEMBL5214926, “Recent contribution of medicinally active 2-aminothiophenes: A privileged scaffold for drug discovery” (Eur J Med Chem, 2022).

pEC50, pIC50: −log10 of the molar value. Values after ≈ are worked out from the molar mass of the structure shown. Values joined by “and” are separate entries in the source; they are usually repeats but may differ in a detail not shown here. Identical values can stand only once.

The test system of series [1] is MCF7. As to the kind of experiment: Cytotoxicity against human MCF7 cells assessed as cell growth inhibition incubated for 48 hrs by MTT assay. It is filed as functional, cell-based. To be noted: MCF7, 48 h.
Series [2] deals with HepG2. As to the kind of experiment: Cytotoxicity against human HepG2 cells assessed as cell growth inhibition incubated for 48 hrs by MTT assay. In kind it is functional, cell-based. To be noted: Homo sapiens, HepG2, 48 h. For orientation: Tetrazolium assays rely on reduction of a dye to a coloured formazan, in cell work by metabolically active cells.
Series [3] deals with Perkinsus sp. Description: Antiprotozoal activity against Perkinsus sp. assessed as reduction in hypnospore viability at 500 uM measured after 48 hrs by microscopic analysis relative to control. It is filed as functional.
In series [4] the test system is Candida tropicalis. As to the kind of experiment: Antifungal activity against Candida tropicalis URM 4262 assessed as fungal growth inhibition around drug-chitosan film at 1.28 mg/ml. In kind it is functional. To be noted: read-out: DIZ.
The subject of series [5] is DNA. As to the kind of experiment: Binding affinity to parasitic DNA assessed as intrinsic binding constant by UV-visible absorption spectrophotometry. It is filed as nucleic-acid assay.
The subject of series [6] is Leishmania amazonensis. As to the kind of experiment: Anti-promastigote activity against Leishmania amazonensis (IFLA/BR/67/PH8) assessed as promastigote growth inhibition incubated for 72 hrs by microscopic analysis. It is filed as functional, organism-based. As to conditions: Leishmania amazonensis, IFLA/BR/67/PH8, 72 h.
Series [7] has as its system Candida parapsilosis. Description: Antifungal activity against Candida parapsilosis ATCC 22019 assessed as fungal growth inhibition by spectrophotometry. To be noted: Lodderomyces parapsilosis. In kind it is functional.
In series [8] the test system is Epidermophyton floccosum. As to the kind of experiment: Antifungal activity against Epidermophyton floccosum 6754 assessed as fungal growth inhibition by spectrophotometry. It is filed as functional.
In series [9] the test system is Trichophyton tonsurans. Description: Antifungal activity against Trichophyton tonsurans 2822 assessed as fungal growth inhibition by spectrophotometry. In kind it is functional.
The test system of series [10] is Trichophyton mentagrophytes. As to the kind of experiment: Antifungal activity against Trichophyton mentagrophytes 5431 assessed as fungal growth inhibition by spectrophotometry. In kind it is functional.
Series [11] relates to Trichophyton mentagrophytes. Description: Antifungal activity against Trichophyton mentagrophytes 5432 assessed as fungal growth inhibition by spectrophotometry. It is filed as functional.
For series [12], the system named is Epidermophyton floccosum. Description: Antifungal activity against Epidermophyton floccosum 6999 assessed as fungal growth inhibition by spectrophotometry. In kind it is functional.
Series [13] relates to Trichophyton rubrum. Description: Antifungal activity against Trichophyton rubrum 6753 assessed as fungal growth inhibition by spectrophotometry. It is filed as functional.
In series [14] the test system is Trichophyton tonsurans. Description: Antifungal activity against Trichophyton tonsurans 700 assessed as fungal growth inhibition by spectrophotometry. It is filed as functional.
For series [15], the system named is Epidermophyton floccosum. Description: Antifungal activity against Epidermophyton floccosum assessed as fungal growth inhibition incubated for 7 days by spectrophotometry. In kind it is functional. As to conditions: 168 h, time 7 day.
Series [16] deals with Heyndrickxia coagulans. As to the kind of experiment: Antibacterial activity against Bacillus coagulans assessed as bacterial growth inhibition. It is filed as functional.
For series [17], the system named is Enterococcus faecalis. Description: Antibacterial activity against Enterococcus faecalis assessed as bacterial growth inhibition. In kind it is functional.
For series [18], the system named is Escherichia coli. As to the kind of experiment: Antibacterial activity against Escherichia coli assessed as bacterial growth inhibition. It is filed as functional.
The species entered for series [19] is Homo sapiens. As to the kind of experiment: Inhibition of CaCC (unknown origin) current potentiation at 10 uM relative to control.
The subject of series [20] is Bacillus subtilis. Description: Antibacterial activity against Bacillus subtilis NCIM 2079 assessed as reduction in bacterial growth incubated for 8 hrs by absorbance based assay. As to conditions: NCIM 2079, 8 h. It is filed as functional, organism-based.
The subject of series [21] is Pseudomonas aeruginosa. Description: Antibacterial activity against Pseudomonas aeruginosa NCIM 2036 assessed as bacterial growth inhibition incubated for 8 hrs by absorbance based assay. In kind it is functional.
Series [22] has as its system Staphylococcus aureus. As to the kind of experiment: Antibacterial activity against Staphylococcus aureus NCIM 2010 assessed as bacterial growth inhibition incubated for 8 hrs by absorbance based assay. It is filed as functional.
For series [23], the system named is Staphylococcus aureus. Description: Antibacterial activity against Staphylococcus aureus NCIM 2010 assessed as bacterial growth inhibition incubated for 8 hrs. It is filed as functional, organism-based. As to conditions: NCIM 2010, 8 h.
Series [24] deals with Mycobacterium tuberculosis. Description: Antimycobacterial activity against Mycobacterium tuberculosis H37Ra incubated for 8 to 12 days by XTT reduction menadione assay. It is filed as functional. As to conditions: time 8-12 day.
In series [25] the test system is Bacillus subtilis. Description: Antibacterial activity against Bacillus subtilis NCIM 2079 assessed as bacterial growth inhibition incubated for 8 hrs by absorbance based assay. It is filed as functional.
For series [26], the system named is Staphylococcus aureus. Description: Antibacterial activity against Staphylococcus aureus NCIM 2010 assessed as reduction in bacterial growth incubated for 8 hrs by absorbance based assay. In kind it is functional, organism-based. As to conditions: NCIM 2010, 8 h.
Series [27] concerns Escherichia coli. Description: Antibacterial activity against Escherichia coli NCIM 2688 assessed as bacterial growth inhibition incubated for 8 hrs by absorbance based assay. It is filed as functional.
In series [28] the test system is Mycobacterium tuberculosis. Description: Antimycobacterial activity against Mycobacterium tuberculosis H37Ra assessed as bacterial growth inhibition incubated for 8 to 12 days by XTT reduction menadione assay. In kind it is functional. As to conditions: time 8-12 day.
In series [29] the test system is Staphylococcus coagulans. Description: Antimicrobial activity against Staphylococcus coagulans assessed as microbial growth inhibition incubated for 24 hrs by disc diffusion assay. It is filed as functional. Background: In agar diffusion tests the substance spreads into inoculated agar from a disc or well.
For series [30], the species on record is Homo sapiens. As to the kind of experiment: Induction of CaCC (unknown origin) current potentiation at 10 uM relative to control.
For series [31], the system named is MCF7. Description: Cytotoxicity against human MCF7 cells assessed as cell growth inhibition incubated for 2 days by MTT assay. In kind it is functional, cell-based. To be noted: MCF7, 48 h.
Series [32] can be described thus: Cytotoxicity against human WI-38 cells assessed as cell growth inhibition incubated for 2 days by MTT assay. In kind it is toxicity, cell-based.
In series [33] the target is T1, TGF-beta receptor type-1 (Homo sapiens, UniProt P36897).
T1 sequence (P36897 whole entry): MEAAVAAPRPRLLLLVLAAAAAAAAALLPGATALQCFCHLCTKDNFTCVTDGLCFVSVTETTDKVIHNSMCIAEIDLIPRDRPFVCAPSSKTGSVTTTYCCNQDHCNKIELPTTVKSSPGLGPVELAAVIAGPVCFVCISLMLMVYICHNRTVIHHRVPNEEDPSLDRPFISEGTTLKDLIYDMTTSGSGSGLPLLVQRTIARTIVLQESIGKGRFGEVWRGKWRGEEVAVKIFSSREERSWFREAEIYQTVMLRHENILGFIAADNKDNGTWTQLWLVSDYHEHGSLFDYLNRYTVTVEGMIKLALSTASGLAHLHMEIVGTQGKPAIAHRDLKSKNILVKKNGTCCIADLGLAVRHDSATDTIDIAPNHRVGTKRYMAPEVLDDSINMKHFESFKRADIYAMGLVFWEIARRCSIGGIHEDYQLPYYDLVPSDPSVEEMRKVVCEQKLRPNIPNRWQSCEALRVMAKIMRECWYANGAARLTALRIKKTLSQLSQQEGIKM
As to the kind of experiment: Inhibition of human TGF-beta-R1 using TMB substrate incubated for 2.5 hrs by microplate reader analysis.

Series [34] has as its system HepG2. As to the kind of experiment: Cytotoxicity against human HepG2 cells assessed as cell growth inhibition incubated for 2 days by MTT assay. In kind it is functional, cell-based. As to conditions: HepG2, 48 h.
For series [35], the system named is PC-3. As to the kind of experiment: Cytotoxicity against human PC-3 cells assessed as cell growth inhibition incubated for 2 days by MTT assay. To be noted: PC-3, 48 h. It is filed as functional, cell-based.

Usually pIC50 stands for the IC50 on a negative log10 scale, so that one unit is a factor of ten. Consider `CC(=O)Nc1sc(C(C)=O)c(Nc2ccc(C(C)=O)cc2)c1C#N`, for which the negative logarithm of the IC50 (pIC50) in series [1] was 4.19; in [2], 4.18.
Turning to `N#Cc1c(N)sc2c1CCCC2`, the Activity in series [3] was 38%. Further, in series [4], the zone of inhibition at 1280 µg/mL stood at 1.5 mm.
As a reminder, the pEC50 is the EC50 on a negative log10 scale, so that one unit is a factor of ten. Take `COc1ccc2nc3cc(Cl)ccc3c(Nc3sc4c(c3C#N)CCC4)c2c1`: the Kb in series [5] is 1 10^4/M. In addition, in series [6], the negative-log EC50 (pEC50) is 5.02.
In general, MIC refers to the smallest concentration in the dilution series that meets the test's criterion for growth inhibition. As to `N#Cc1ccsc1/N=C/c1ccc(Br)cc1`, the minimal inhibitory concentration (MIC) in series [7] stood at 128 µg/mL (≈ 440 µM); in series [8], 512 µg/mL (≈ 1760 µM); in [9] it was 1020 µg/mL (≈ 3520 µM); in series [10] it was 128 µg/mL (≈ 440 µM); in [11], 1020 µg/mL (≈ 3520 µM); in series [12] it was 512 µg/mL (≈ 1760 µM). Also, the MIC in [13] is 32 µg/mL (≈ 110 µM); in series [14], 64 µg/mL (≈ 220 µM); in series [15] it was 101 µM (≈ 29.4 µg/mL).
For the molecule `N#Cc1ccsc1/N=C/c1ccc([N+](=O)[O-])cc1`, the minimum inhibitory concentration (MIC) was determined as 1020 µg/mL (≈ 3980 µM) in series [7]; 512 µg/mL (≈ 1990 µM) in series [8]; 1020 µg/mL (≈ 3980 µM) in series [12]; 64 µg/mL (≈ 249 µM) in series [13]; 512 µg/mL (≈ 1990 µM) in series [14].
For `CC(=O)c1ccc(Nc2c(C(=O)/C=C/c3ccccc3)sc(N)c2C#N)cc1`, the negative-log IC50 (pIC50) was 4.17 in series [1] and 4.13 in series [2].
With `N#Cc1ccsc1/N=C/c1c[nH]c2cccc([N+](=O)[O-])c12`, the MIC in series [9] was found to be 512 µg/mL (≈ 1730 µM); in [11] it was 512 µg/mL (≈ 1730 µM); in [12], 1020 µg/mL (≈ 3460 µM); in [13], 64 µg/mL (≈ 216 µM); in series [14] it was 128 µg/mL (≈ 432 µM).
`O=C(N[C@H](CO)[C@H](O)c1ccc([N+](=O)[O-])cc1)C(Cl)Cl` [CHLORAMPHENICOL]: the MIC in series [16] came out at 0.41 µg/mL (≈ 1.27 µM); in series [17] it was 0.05 µg/mL (≈ 0.155 µM); in [18], 0.05 µg/mL (≈ 0.155 µM).
As for `COc1ccc2nc3cc(Cl)ccc3c(Nc3sc4c(c3C#N)CCCC4)c2c1`, the Kb in series [5] is 1 10^4/M. The pEC50 in series [6] is 4.96.
In general, inhibition refers to the drop in the measured response relative to a control, in per cent. As to `C=CCNC(=S)Nc1sc2c(c1C(=O)OC)CCCC2`, the inhibition in [19] amounted to 40%.
Take `COC(=O)c1c(NC(=O)N[C@@H](C(=O)N[C@@H]2C(=O)N3C(C(=O)O)=C(C)CS[C@H]23)c2ccccc2)sc2c1CCCCCC2`: the pEC50 in series [20] is 6.59; in series [23], 6.74; in [26], 6.74. Besides, the MIC is greater than 10 µg/mL in series [21]; 0.46 µg/mL (≈ 0.751 µM) in [22]; 0.782 µg/mL (≈ 1.28 µM) in series [24]; 2.35 µg/mL (≈ 3.84 µM) in [25]; greater than 10 µg/mL in [27]. In series [28], the EC5 was found to be 0.782 µM.
In the case of `Cc1sc(NC(=O)c2cc(O)c(O)c(O)c2)c(C#N)c1C`, the minimum inhibitory concentration (MIC) is 0.49 µM (≈ 0.149 µg/mL) in series [29], 0.15 µg/mL (≈ 0.493 µM) in [16] and 0.25 µg/mL (≈ 0.821 µM) in series [17].
In the case of `COc1cc(/C=N/c2sccc2C#N)cc(OC)c1OC`, the minimum inhibitory concentration (MIC) in [10] worked out at 256 µg/mL (≈ 847 µM); in series [11], 128 µg/mL (≈ 423 µM); in series [12], 256 µg/mL (≈ 847 µM); in series [13], 64 µg/mL (≈ 212 µM); in [14], 128 µg/mL (≈ 423 µM).
`COC(=O)c1c(NC(=O)Cn2cc(CNC34CC5CC(CC(C5)C3)C4)nn2)sc2c1CCC(C(C)(C)C)C2` (stereo unspecified): the Activity in series [30] came out at 35%.
As a reminder, the IC50 is the midpoint of a concentration-inhibition curve. `COc1ccc(OC)c(/C=C/C(=O)Nc2sc3c(c2C#N)CCC3)c1`: the pIC50 in series [31] was 5.49; in [33] it was 7.05 and 7.06; in [34], 5.57; in [35], 5.87. In series [32], the 50% inhibitory concentration (IC50) at 2 days turned out to be 185 µM.
